Data published in patent US10925974B2, “Adipose tissue-targeting polypeptide-verbascoside-nanogold particle derivative, preparation method and application thereof” (Affiliated Stomatological Hospital of Nanjing Medical …, priority 2018, dated 2021).
Marks after values point to notes of the source that are not given here. Ends that are not written are not given here.

Legend:
[1] = Inhibition of weight gain of mice fed with high-fat feed; assay type: in vivo
Excerpt: Experimental Animals: 3-4 weeks old male mice and feed provided by the Laboratory Animal Center of Nanjing Medical University, license No.: SCXK (Su) 2011-0003. The animals were randomly caged, with unlimited drink and feed. Experimental drugs: polypeptide-verbascoside-nanogold particle derivative (adipose tissue-targeting), polypeptide-verbascoside derivative, polypeptide-nanogold derivative, and verbascoside-nanogold derivative as experimental groups, and physiological saline for negative control. 2) Raising 60 male mice of 6 weeks old in the clean environment of Experimental Animal Center of Nanjing Medical University, at a temperature of (21±2) ° C., a humidity of (35±2) %, an intermittent illumination for 12 hours, with unlimited drink and feed; wherein the drinking water is distilled water prepared by the experimental animal center; 3) After 2-3 days of adaptive feeding, randomly selecting 10 mice as a blank control group provided with regular feed, while providing the remaining 50 rice with high fat feed (cholesterol 1 wt. %, lard 20 wt. %, bile salt 0.2 wt. %, and regular feed 78.8 wt. %); measuring the body weight of the mice in the two groups every 2 weeks; analyzing the obtained body weight data with statistical methods, and the results are shown in FIG. 3, wherein *P<0.05, **P<0.01, and ***P<0.001 indicate body weight data of the experimental group compared with those of the blank control group fed with regular feed; 4) Randomly dividing the obese mice fed with high-fat feed into several groups, with each group of 10 mice; injecting (exemplified by intraperitoneal injection) physiological saline (0.03 mL of physiological saline per 30 g body weight), polypeptide-verbascoside derivative (15 mg of derivative per kg body weight, dissolved in DMSO), polypeptide-nanogold derivative (15 mg of derivative per kg body weight, dissolved in DMSO), verbascoside-nanogold derivative (15 mg of derivative per kg body weight, dissolved in DMSO), and polypeptide-verbascoside-nanogold particle derivative (15 mg of derivative per kg body weight, dissolved in DMSO) at 9:30 am every day, respectively.

[2] = tested on: visceral fat and subcutaneous fat of mice; assay: Storage of visceral fat and subcutaneous fat of mice provided with high fat feed; assay type: in vivo
Procedure: 1) Providing an intraperitoneal administration to the high-fat-fed obese mice for 12 weeks according to the experimental procedure of Embodiment 3;
2) Fasting the mice of each group for 12 hours, and then anesthetizing with 3% pentobarbital sodium having a concentration of 45 mg/kg via intraperitoneal injection, and accurately weighing the mice;
3) Disinfecting routinely and performing laparotomy, rapidly extracting and weighing the adipose tissue around the kidney, adipose tissue around the mesentery, adipose tissue around the epididymis, and abdominal subcutaneous adipose tissue to obtain wet weights thereof (the abdominal subcutaneous adipose tissue range: abdomen below the rib arch and above the groin, both sides are bounded by the midaxillary line);
4) Calculating according to the following formula: wet weight of the abdominal adipose; total weight of the fat pad (g)=adipose tissue around the kidney+adipose tissue around the epididymis; body fat content=the total weight of the fat pad (g)/the total body weight of mice (g);

[3] = high fat feed mice, 15 mg/kg i.p. daily for 12 weeks, wet weight

polypeptide-verbascoside: ester of adipose tissue-targeting polypeptide CKGGRAKDC (C-terminal acyl chloride) with verbascoside sodium phenolate, per Embodiment 1 (not fully specified (C-terminus); cysteine pairing not given here)
Weight 6 weeks after administration ([1]; high fat feed mice, 15 mg/kg intraperitoneal injection every day, 6 weeks, n=10): 30.6 ± 0.3 g | Weight 12 weeks after administration ([1]; high fat feed mice, 15 mg/kg intraperitoneal injection every day, 12 weeks, n=10): 35.5 ± 1.6 g | Initial Weight ([1]; high fat feed obese mice, before administration (baseline), n=10): 29.3 ± 0.5** g | weight gains of mice ([1]; treatment for 6 weeks, compared with the model control group (#p<0.05)): significantly inhibited | Body weight ([2]; Table 3, high fat feed mice, 12 weeks, after 12 h fasting): 35.46 ± 1.57 g | Body weight ([2]; Table 4, high fat feed mice, 12 weeks): 35.26 ± 1.77 g | SF-FAT ([2]; abdominal subcutaneous fat, high fat feed mice, 12 weeks): 0.79 ± 0.12 g | Total weight of the fat pad ([2]; adipose tissues around kidney + around epididymis, high fat feed mice, 12 weeks): 2.27 ± 0.14 g | wet weight of the visceral adipose tissues of mice ([2]; after treatment, compared with the model control group (#p<0.05)): significantly reduced | Total weight of visceral adipose tissues ([2]; high fat feed mice, 15 mg/kg i.p. daily for 12 weeks, Table 2): 5.72 ± 0.17 g | Weight of visceral adipose tissues: Around epididymis [2, 3]: 1.21 ± 0.12 g | Weight of visceral adipose tissues: Around kidney [2, 3]: 0.61 ± 0.17 g | Weight of visceral adipose tissues: Around omentum and mesentery [2, 3]: 0.32 ± 0.05 g | SF-FAT/body weight ([2]; high fat feed mice, 12 weeks): 2.27 ± 0.23 | VF-FAT/SF-FAT ([2]; high fat feed mice, 12 weeks): 2.63 ± 0.29 | Body fat index ([2]; total weight of the fat pad / total body weight, high fat feed mice, 12 weeks): 6.13 ± 0.41 % | VF-FAT ([2]; visceral fat, Table 4, high fat feed mice, 12 weeks): 5.78 ± 0.17 g
